Patent publication US20070232492A1, “Herbicidal Composition” (Ishihara Sangyo Kaisha, LTD., priority 2004, published 2007)
Read-outs that look alike come from different tables or passages of the source.

Columns and labels:
Format in all cases: in vivo
[1] = test system: barnyardgrass (Echinochloa oryzicola vasing); assay: Growth inhibition of barnyardgrass in paddy soil pots, application under submerged condition, visual rating (observed value) and Colby expected value; settings: for inhibition at 500 g/ha: 5 g/a; for inhibition at 1000 g/ha: 10 g/a
Description: (§1) When the herbicidal activity in a case where two active ingredients are combined, is larger than the simple sum of the respective herbicidal activities of the two active ingredients (the expected activity), it is called a synergistic effect. The activity expected by the combination of two active ingredients can be calculated as follows (Colby S. R., “Weed”, vol. 15, p. 20-22, 1967). E=p+q−(p×q÷100) where p: growth inhibition rate when treated with x (g/a) of herbicide X,
(§2) q: growth inhibition rate when treated with y (g/a) of herbicide Y,
(§3) E: growth inhibition rate expected when treated with x (g/a) of herbicide X and y (g/a) of herbicide Y.
(§4) Namely, when the actual growth inhibition rate (observed value) is larger than the growth inhibition rate by the above calculation (expected value), the activity by the combination can be regarded as showing a synergistic effect.
Paddy field soil was put into a 1/10,000 are pot, and seeds of barnyardgrass (Echinochloa oryzicola vasing) were sown and left to stand under an irrigated condition with a water depth of 3.5 cm. When barnyardgrass reached 2.0 to 2.5 leaf stage, wettable powders of compound A2 and compound (B1.1) were, respectively, diluted with water and applied under submerged condition so that the active ingredients became the prescribed amounts, respectively. The state of growth was visually observed 21 days after application, and the growth inhibition rate (%) evaluated in accordance with the following evaluation standard (observed value) and the growth inhibition rate (%) calculated by the above-mentioned Colby method (expected value) are shown in Table 1.
(§5) Growth inhibition rate (%)=0% (equivalent to the non-treated area) to 100% (complete kill)
(§6) Paddy field soil was put into a 1/10,000 are pot, and seeds of barnyardgrass (Echinochloa oryzicola vasing) were sown and left to stand under an irrigated condition with a water depth of 3.5 cm. When barnyardgrass reached 2.0 to 2.5 leaf stage, wettable powders of compound A2 and compound (B2.1) were, respectively, diluted with water and applied under submerged condition so that the active ingredients became the prescribed amounts, respectively. The state of growth was visually observed 21 days after application, and evaluation and calculation were carried out in the same manner as in the above Test Example 1.
as §6, with “leaf stage, a wettable powder” for “leaf stage, wettable powders”, “a wettable powder of compound” for “stage, wettable powders of compound”, “A2 and an emulsifiable concentrate of compound (B3.1)” for “A2 and compound (B2.1)”, “of compound (B3.1) were, respectively,” for “and compound (B2.1) were, respectively,”
as §6, with “(B4.1)” for “(B2.1)”
Paddy field soil was put into a 1/10,000 are pot, and seeds of barnyardgrass (Echinochloa oryzicola vasing) were sown and left to stand under an irrigated condition with a water depth of 3.5 cm. […]

[2] = test system: flatsedge (Cyperus serotinus); assay: Growth inhibition of flatsedge (planted tubers) in paddy soil pots, application under submerged condition, visual rating and Colby expected value
Description: as §1, §2, §3, §4, §5
(§7) Paddy field soil was put into a 1/10,000 are pot, and tubers of flatsedge (Cyperus serotinus) were planted and left to stand under an irrigated condition with a water depth of 3.5 cm. When flatsedge reached 2.8 to 3.2 leaf stage, wettable powders of compound A2 and compound (B1.2) were, respectively, diluted with water and applied under submerged condition so that the active ingredients became the prescribed amounts, respectively. The state of growth was visually observed 29 days after application, and evaluation and calculation were carried out in the same manner as in the above Test Example 1.
Paddy field soil was put into a 1/3,000 are pot, and tubers of flatsedge (Cyperus serotinus) were planted and left to stand under an irrigated condition with a water depth of 3.5 cm. When flatsedge reached 4 leaf stage, a wettable powder of compound A2 and an emulsifiable concentrate of compound C4 were, respectively, diluted with water and applied under submerged condition so that the active ingredients became the prescribed amounts, respectively. The state of growth was visually observed 21 days after application, and the growth inhibition rate (%) evaluated in the same manner as in the above Test Example 1 (observed value) and the growth inhibition rate (%) calculated by the above-mentioned Colby method (expected value) are shown in Table 32.
as §7, with “2.5” for “2.8”, “3.0” for “3.2”, “A2, compound (D2.3)” for “A2”, “(B4.1)” for “(B1.2)”, “30” for “29”, “evaluated” for “evaluation and calculation were carried out”
as §7, with “2.5” for “2.8”, “3.0” for “3.2”, “A2, compound (D2.3)” for “A2”, “(B6.1)” for “(B1.2)”, “30” for “29”, “evaluated” for “evaluation and calculation were carried out”
Paddy field soil was put into a 1/10,000 are pot, and tubers of flatsedge (Cyperus serotinus) were planted and left to stand under an irrigated condition with a water depth of 3.5 cm. When flatsedge reached 2.5 to 3.0 leaf stage, wettable powders of compound A2, compound (D2.3) and compound (B8.1) were, respectively, diluted with water and applied under submerged condition so that the active ingredients became the prescribed amounts, respectively. […]

[3] = test system: Japanese bulrush (Scirpus juncoides); assay: Growth inhibition of Japanese bulrush in paddy soil pots, application under submerged condition, visual rating and Colby expected value; settings: 2 leaf stage, 19 days after application
Description: as §1, §2, §3, §4, §5
(§8) Paddy field soil was put into a 1/10,000 are pot, and seeds of Japanese bulrush (Scirpus juncoides) were sown and left to stand under an irrigated condition with a water depth of 3.5 cm. When Japanese bulrush reached 2.3 to 2.6 leaf stage, a wettable powder of compound A2 and granules of compound (B7.1) were, respectively, diluted with water and applied under submerged condition so that the active ingredients became the prescribed amounts, respectively. The state of growth was visually observed 10 days after application, and evaluation and calculation were carried out in the same manner as in the above Test Example 1.
as §8, with “an emulsifiable concentrate” for “granules”, “(B3.1)” for “(B7.1)”
(§9) Paddy field soil was put into a 1/10,000 are pot, and seeds of Japanese bulrush (Scirpus juncoides) were sown and left to stand under an irrigated condition with a water depth of 3.5 cm. When Japanese bulrush reached 2 leaf stage, wettable powders of compound A2, C2 and C4 and granules of compound C6 were, respectively, diluted with water and applied under submerged condition so that the active ingredients became the prescribed amounts, respectively.
Paddy field soil was put into a 1/10,000 are pot, and seeds of Japanese bulrush (Scirpus juncoides) were sown and left to stand under an irrigated condition with a water depth of 3.5 cm. When Japanese bulrush reached 2 leaf stage, wettable powders of compound A2, C2 and C4 and granules of compound C6 were, respectively, diluted with water and applied under submerged condition so that the active ingredients became the prescribed amounts, respectively. The state of growth was visually observed 19 days after application, and the growth inhibition rate (%) evaluated in the same manner as in the above Test Example 1 (observed value) and the growth inhibition rate (%) calculated by the above-mentioned Colby method (expected value) are shown in Tables 36, 37 and 38.
as §9, with “3” for “2”, “A2” for “A2, C2”, “and” for “and C4 and granules of”, “(D2.2)” for “C6”, “respectively. […]” for “respectively.”

[4] = Echinochloa oryzicola, soil, 336 h, 2.8 to 3.4 leaf stage, 14 days after application, Test Examples 66-72, read-out: Growth inhibition rate (%) Observed
[5] = Echinochloa oryzicola, soil, 504 h, 2.0 to 2.5 leaf stage, 21 days after application, read-out: Growth inhibition rate (%) Observed

## COc1ccsc1CN(C(=O)CCl)c1c(C)cccc1C [Compound (B3.2), thenylchlor]
[1]; Echinochloa oryzicola, soil, 504 h, 0.938 g/a, 2.8 to 3.2 leaf stage, 21 days after application, read-out: Growth inhibition rate (%) Observed
  inhibition at 93.8 g/ha: 5%
[1]; Echinochloa oryzicola, soil, 504 h, 0.94 g/a, 2.8 to 3.2 leaf stage, 21 days after application, Test Examples 39-43, read-out: Growth inhibition rate (%) Observed
  inhibition at 94 g/ha: 0%
[1]; Echinochloa oryzicola, soil, 504 h, 1.875 g/a, 2.8 to 3.2 leaf stage, 21 days after application, read-out: Growth inhibition rate (%) Observed
  inhibition at 187.5 g/ha: 27%
[1]; Echinochloa oryzicola, soil, 504 h, 1.88 g/a, 2.8 to 3.2 leaf stage, 21 days after application, Test Examples 39-43, read-out: Growth inhibition rate (%) Observed
  inhibition at 188 g/ha: 15%
[2]; Cyperus serotinus, soil, 720 h, 2.5 g/a, 2.5 to 3.0 leaf stage, 30 days after application, Test Examples 46-60, read-out: Growth inhibition rate (%) Observed
  inhibition at 250 g/ha: 35%

## CS(=O)(=O)c1ccc(C(=O)C2=C(Sc3ccccc3)C3CCC(C3)C2=O)c(Cl)c1 (stereo not drawn) [Compound (B4.1), benzobicyclon]
[1]; Echinochloa oryzicola, soil, 504 h, 1 g/a, 2.0 to 2.5 leaf stage, 21 days after application, read-out: Growth inhibition rate (%) Observed
  inhibition at 100 g/ha: 13%
[1]; Echinochloa oryzicola, soil, 504 h, 2 g/a, 2.0 to 2.5 leaf stage, 21 days after application, read-out: Growth inhibition rate (%) Observed
  inhibition at 200 g/ha: 33%
[2]; Cyperus serotinus, soil, 720 h, 2 g/a, 2.5 to 3.0 leaf stage, 30 days after application, Test Examples 46-60, read-out: Growth inhibition rate (%) Observed
  inhibition at 200 g/ha: 60%

## CC(C)(NC(=O)C(Br)C(C)(C)C)c1ccccc1 (stereo not drawn) [Compound (B6.1), bromobutide]
[1]; [4]
  inhibition at 500 g/ha: 10%
  inhibition at 1000 g/ha: 10%
[1]; [5]
  inhibition at 500 g/ha: 0%
  inhibition at 1000 g/ha: 10%
[2]; Cyperus serotinus, soil, 720 h, read-out: Growth inhibition rate (%) Observed
  inhibition at 1000 g/ha: 35%

## CCN(CC)C(=O)n1cnc(S(=O)(=O)c2c(C)cc(C)cc2C)n1 [Compound (B9.1), cafenstrole]
[1]; 0.525 g/a, 2.8 to 3.2 leaf stage, 21 days after application
  Growth inhibition rate (%) Observed: 2%
[1]; 0.788 g/a, 2.1 to 3.2 leaf stage, 21 days after application
  Growth inhibition rate (%) Observed: 57%
[1]; 0.788 g/a, 2.8 to 3.2 leaf stage, 19 days after application, Test Examples 62-65
  Growth inhibition rate (%) Observed: 10%
[1]; 1.05 g/a, 2.8 to 3.2 leaf stage, 21 days after application
  Growth inhibition rate (%) Observed: 10%
[1]; 1.58 g/a, 2.8 to 3.2 leaf stage, 19 days after application, Test Examples 62-65
  Growth inhibition rate (%) Observed: 10%
[2]; 2.1 g/a, 2.5 to 3.0 leaf stage, 30 days after application, Test Examples 46-60
  Growth inhibition rate (%) Observed: 35%

## CCC1(CC2(c3cccc(Cl)c3)CO2)C(=O)c2ccccc2C1=O (stereo not drawn) [Compound (B10.1), indanofan]
[1]; Echinochloa oryzicola, soil, 504 h, 0.375 g/a, 2.8 to 3.2 leaf stage, 21 days after application, read-out: Growth inhibition rate (%) Observed
  inhibition at 37.5 g/ha: 0%
[1]; Echinochloa oryzicola, soil, 504 h, 0.75 g/a, 2.8 to 3.2 leaf stage, 21 days after application, read-out: Growth inhibition rate (%) Observed
  inhibition at 75 g/ha: 13%
[1]; Echinochloa oryzicola, soil, 528 h, 0.563 g/a, 2.1 to 3.2 leaf stage, 22 days after application, read-out: Growth inhibition rate (%) Observed
  inhibition at 56.3 g/ha: 40%
[2]; Cyperus serotinus, soil, 720 h, 1.5 g/a, 2.5 to 3.0 leaf stage, 30 days after application, Test Examples 46-60, read-out: Growth inhibition rate (%) Observed
  inhibition at 150 g/ha: 25%

## CCOC(=O)CCCOc1ccc(Cl)cc1C [Compound C4, MCPB ethyl]
[2]; 2.0 g/a, 4 leaf stage, 21 days after application
  Growth inhibition rate (%) Observed: 33%
[2]; 2.4 g/a, 4 leaf stage, 21 days after application
  Growth inhibition rate (%) Observed: 57%
[3]; 0.5 g/a, Test Example 33
  Growth inhibition rate (%) Observed: 10%
[3]; 1.0 g/a, Test Example 33
  Growth inhibition rate (%) Observed: 27%
[3]; 1.5 g/a, Test Example 34
  Growth inhibition rate (%) Observed: 20%
[3]; 2.0 g/a, Test Example 33
  Growth inhibition rate (%) Observed: 55%
[3]; 10 g/a, Test Example 34
  Growth inhibition rate (%) Observed: 68%
